Assays:
[1] = Metabolic stability in human liver microsomes assessed as compound remaining after 10 mins; assay type: ADME, Microsome; conditions: read-out: Stabilty
[2] = Metabolic stability in mouse liver microsomes assessed as compound remaining after 10 mins; assay type: ADME, Microsome; conditions: read-out: Stabilty
[3] = Apparent permeability across apical to basolateral membrane in human Caco2 cells; assay type: ADME, cell-based; conditions: Caco-2
[4] = Protein binding in human serum assessed as fraction unbound; assay type: ADME, cell-free; conditions: read-out: PB
[5] = Protein binding in mouse serum assessed as fraction unbound; assay type: ADME, cell-free; conditions: read-out: PB
Cytochrome P450 2C8 = target: T1, Cytochrome P450 2C8 (Homo sapiens, UniProt P10632); assay: Inhibition of CYP2C8 (unknown origin); assay type: ADME
T1 sequence (P10632 whole entry): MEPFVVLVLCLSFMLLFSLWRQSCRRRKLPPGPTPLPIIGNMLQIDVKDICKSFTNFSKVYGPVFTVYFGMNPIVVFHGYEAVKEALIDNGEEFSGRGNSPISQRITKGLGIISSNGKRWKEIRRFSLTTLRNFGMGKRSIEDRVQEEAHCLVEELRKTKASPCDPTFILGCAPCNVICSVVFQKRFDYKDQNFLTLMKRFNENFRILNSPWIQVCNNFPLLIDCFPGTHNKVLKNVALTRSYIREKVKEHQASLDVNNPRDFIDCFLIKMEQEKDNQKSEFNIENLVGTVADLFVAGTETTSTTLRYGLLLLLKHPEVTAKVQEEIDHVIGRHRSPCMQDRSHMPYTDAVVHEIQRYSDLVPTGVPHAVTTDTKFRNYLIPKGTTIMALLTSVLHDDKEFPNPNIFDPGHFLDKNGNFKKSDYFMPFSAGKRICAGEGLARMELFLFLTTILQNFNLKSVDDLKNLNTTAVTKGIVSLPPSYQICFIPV

Cytochrome P450 3A4 = Cytochrome P450 3A4 (Homo sapiens, UniProt P08684); assay: Inhibition of CYP3A4 (unknown origin); assay type: ADME
Chain of Cytochrome P450 3A4 (P08684 whole entry, the tested form may be a part): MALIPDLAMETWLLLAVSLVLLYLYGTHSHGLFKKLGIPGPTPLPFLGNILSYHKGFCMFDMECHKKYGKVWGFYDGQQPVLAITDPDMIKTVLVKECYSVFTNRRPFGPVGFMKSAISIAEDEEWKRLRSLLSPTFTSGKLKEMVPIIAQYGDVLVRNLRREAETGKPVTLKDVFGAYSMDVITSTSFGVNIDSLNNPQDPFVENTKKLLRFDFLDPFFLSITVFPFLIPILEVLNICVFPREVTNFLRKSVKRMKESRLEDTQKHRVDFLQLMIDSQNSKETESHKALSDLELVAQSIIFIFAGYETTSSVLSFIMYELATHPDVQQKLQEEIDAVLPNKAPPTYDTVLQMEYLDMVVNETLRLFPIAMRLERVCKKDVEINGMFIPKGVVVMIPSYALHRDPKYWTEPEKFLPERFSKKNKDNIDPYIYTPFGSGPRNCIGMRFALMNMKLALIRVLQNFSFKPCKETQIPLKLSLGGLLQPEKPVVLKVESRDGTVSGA

[6] = target: T2, Nuclear receptor ROR-gamma (Homo sapiens, UniProt P51449); assay: Inverse agonist activity at human Gal4-fused RORgammat expressed in human Jurkat cells luciferase reporter gene assay; assay type: cell-based
T2 sequence (P51449 whole entry): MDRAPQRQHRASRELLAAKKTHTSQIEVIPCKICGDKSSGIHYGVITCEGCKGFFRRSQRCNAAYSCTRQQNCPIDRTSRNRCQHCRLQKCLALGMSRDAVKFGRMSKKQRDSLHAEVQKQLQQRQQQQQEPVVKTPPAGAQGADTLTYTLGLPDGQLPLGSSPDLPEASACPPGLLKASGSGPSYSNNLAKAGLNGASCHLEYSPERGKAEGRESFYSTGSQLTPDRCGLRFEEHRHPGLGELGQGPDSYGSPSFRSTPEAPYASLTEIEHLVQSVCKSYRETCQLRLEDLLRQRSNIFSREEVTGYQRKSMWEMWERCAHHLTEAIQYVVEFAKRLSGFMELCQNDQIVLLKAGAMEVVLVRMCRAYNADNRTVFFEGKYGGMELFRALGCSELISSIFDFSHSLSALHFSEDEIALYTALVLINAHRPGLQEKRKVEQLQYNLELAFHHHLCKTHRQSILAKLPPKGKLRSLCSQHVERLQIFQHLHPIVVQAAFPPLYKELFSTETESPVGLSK

[7] = target: T2, Nuclear receptor ROR-gamma; assay: Inverse agonist activity at RORgammat in human whole blood assessed as inhibition of anti-CD3/anti-CD28 monoclonal antibodies-stimulated IL-17A production measured by ELISA; assay type: tissue-based
[8] = Efflux ratio of apparent permeability across basolateral to apical side over apical to basolateral side in Caco2 cells; assay type: ADME, cell-based; conditions: human, Caco-2
Cytochrome P450 2C9 = Cytochrome P450 2C9 (Homo sapiens, UniProt P11712); assay: Inhibition of CYP2C9 (unknown origin); assay type: ADME
Chain of Cytochrome P450 2C9 (P11712 whole entry): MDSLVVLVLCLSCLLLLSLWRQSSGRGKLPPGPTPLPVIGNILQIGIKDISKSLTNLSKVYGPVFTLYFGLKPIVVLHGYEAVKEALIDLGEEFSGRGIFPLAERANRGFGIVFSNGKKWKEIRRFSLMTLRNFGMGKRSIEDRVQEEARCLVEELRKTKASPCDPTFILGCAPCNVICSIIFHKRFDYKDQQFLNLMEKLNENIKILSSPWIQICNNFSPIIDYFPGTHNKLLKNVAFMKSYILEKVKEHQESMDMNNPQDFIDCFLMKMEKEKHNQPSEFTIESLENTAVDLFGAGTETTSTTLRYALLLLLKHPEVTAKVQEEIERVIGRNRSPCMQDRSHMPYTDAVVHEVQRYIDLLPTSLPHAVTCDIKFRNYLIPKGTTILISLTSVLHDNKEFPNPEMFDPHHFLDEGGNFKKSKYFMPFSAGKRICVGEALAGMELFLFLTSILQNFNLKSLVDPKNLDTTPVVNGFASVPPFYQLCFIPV

Cytochrome P450 2C19 = Cytochrome P450 2C19 (Homo sapiens, UniProt P33261); assay: Inhibition of CYP2C19 (unknown origin); assay type: ADME
Chain of Cytochrome P450 2C19 (P33261 whole entry): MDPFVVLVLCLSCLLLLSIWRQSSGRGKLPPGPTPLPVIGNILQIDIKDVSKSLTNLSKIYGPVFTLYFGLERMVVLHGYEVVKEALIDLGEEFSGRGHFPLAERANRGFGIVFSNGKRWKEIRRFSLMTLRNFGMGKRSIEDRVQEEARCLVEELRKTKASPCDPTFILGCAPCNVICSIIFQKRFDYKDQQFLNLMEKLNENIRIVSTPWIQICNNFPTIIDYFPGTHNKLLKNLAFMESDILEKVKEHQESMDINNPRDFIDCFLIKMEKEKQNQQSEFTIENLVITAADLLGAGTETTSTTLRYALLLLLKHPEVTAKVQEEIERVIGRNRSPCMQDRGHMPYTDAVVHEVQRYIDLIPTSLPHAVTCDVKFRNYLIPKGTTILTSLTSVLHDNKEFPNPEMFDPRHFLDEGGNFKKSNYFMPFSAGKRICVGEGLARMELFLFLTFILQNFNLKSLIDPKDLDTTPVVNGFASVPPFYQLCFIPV

Row | remaining at 10 min [1] [%] | remaining at 10 min [2] [%] | Papp A→B [3] [×10⁻⁶ cm/s] | fraction unbound [4] | fraction unbound [5] | IC50 (Cytochrome P450 2C8) [µM] | IC50 (Cytochrome P450 3A4) [µM] | EC50 [6] [nM] | EC50 [7] [nM] | efflux ratio [8] | IC50 (Cytochrome P450 2C9) [µM] | IC50 (Cytochrome P450 2C19) [µM] | SMILES
1 | 97 | 100 | – | – | – | – | – | – | – | – | – | – | C[C@](O)(CS(C)(=O)=O)C(=O)N[C@@H]1CC[C@@]2(S(=O)(=O)c3ccc(F)cc3)c3ccc(C(F)(C(F)(F)F)C(F)(F)F)nc3CC[C@@H]12
2 | 83 | 82 | 9.4 | 0.2 | 0.16 | > 20 | > 20 | – | – | – | – | – | N#CCCN1C(=O)CC[C@H]1C(=O)N1CC[C@@]2(S(=O)(=O)c3ccc(F)cc3)c3ncc(C(F)(C(F)(F)F)C(F)(F)F)cc3CC[C@@H]12
3 | 100 | 83 | 19 | 0.071 | 0.051 | > 20 | 19 | 24 | 31 | 1.7 | – | – | N#CCCN1C(=O)CC[C@H]1C(=O)N1CC[C@@]2(S(=O)(=O)c3ccc(F)cc3)c3ccc(C(F)(C(F)(F)F)C(F)(F)F)nc3CC[C@@H]12
4 | 98 | 84 | 6.4 | – | 0.004 | 5 | > 20 | 2.5 | 39 | 0.5 | 12 | 15 | C[C@@](O)(CS(C)(=O)=O)C(=O)N[C@@H]1CC[C@@]2(S(=O)(=O)c3ccc(F)cc3)c3ccc(C(F)(C(F)(F)F)C(F)(F)F)cc3CC[C@@H]12
5 | 100 | 95 | 7.3 | – | 0.003 | 6.5 | 5.8 | 8.7 | 50 | 0.5 | 5.5 | > 20 | O=C(N[C@@H]1CC[C@@]2(S(=O)(=O)c3ccc(F)cc3)c3ccc(C(F)(C(F)(F)F)C(F)(F)F)cc3CC[C@@H]12)C1CCS(=O)(=O)CC1
6 | 100 | 91 | 23 | – | 0.05 | 16 | > 20 | – | – | – | – | – | O=C(C1CCS(=O)(=O)CC1)N1CC[C@@]2(S(=O)(=O)c3ccc(F)cc3)c3ccc(C(F)(C(F)(F)F)C(F)(F)F)nc3CC[C@@H]12
7 | 100 | 82 | 8.1 | – | 0.022 | 16 | > 20 | 8.4 | 67 | 2.2 | 9.5 | > 20 | O=C(N[C@@H]1CC[C@@]2(S(=O)(=O)c3ccc(F)cc3)c3ccc(C(F)(C(F)(F)F)C(F)(F)F)nc3CC[C@@H]12)C1CCS(=O)(=O)CC1
8 | 100 | 96 | – | – | – | – | – | 71 | – | – | – | – | O=C(C1CCS(=O)(=O)CC1)N1CC[C@@]2(S(=O)(=O)c3ccc(F)cc3)c3ncc(C(F)(C(F)(F)F)C(F)(F)F)cc3CC[C@@H]12
9 | 89 | 83 | 7.6 | – | 0.002 | 13 | > 20 | 5.5 | 120 | 0.9 | 9.2 | 15 | C[C@](O)(CS(C)(=O)=O)C(=O)N[C@@H]1CC[C@@]2(S(=O)(=O)c3ccc(F)cc3)c3ccc(C(F)(C(F)(F)F)C(F)(F)F)cc3CC[C@@H]12
10 | 93 | 100 | 13 | 0.008 | 0.068 | 9.4 | 13 | – | – | – | – | – | O=C(C1CCS(=O)(=O)CC1)N1CC[C@@]2(S(=O)(=O)c3ccc(F)cc3)c3ccc(C(F)(C(F)(F)F)C(F)(F)F)cc3CC[C@@H]12
11 | 92 | 85 | 17 | 0.018 | 0.017 | 13 | 10 | – | – | – | – | – | N#CCCN1C(=O)CC[C@H]1C(=O)N1CC[C@@]2(S(=O)(=O)c3ccc(F)cc3)c3ccc(C(F)(C(F)(F)F)C(F)(F)F)cc3CC[C@@H]12
12 | 92 | 49 | – | – | – | – | – | 17 | 23 | – | – | – | O=C(C1CCS(=O)(=O)CC1)N1CC[C@@]2(S(=O)(=O)c3ccc(F)cc3)c3cnc(C(F)(C(F)(F)F)C(F)(F)F)cc3CC[C@@H]12
13 | 100 | 69 | 12 | 0.12 | 0.068 | > 20 | 12 | – | – | – | – | – | N#CCCN1C(=O)CC[C@H]1C(=O)N1CC[C@@]2(S(=O)(=O)c3ccc(F)cc3)c3cnc(C(F)(C(F)(F)F)C(F)(F)F)cc3CC[C@@H]12
14 | 100 | 87 | 12 | – | 0.018 | 6.3 | 9.1 | 6 | 101 | 0.5 | 8.5 | 16 | CC(C)(O)CC(=O)N[C@@H]1CC[C@@]2(S(=O)(=O)c3ccc(F)cc3)c3ccc(C(F)(C(F)(F)F)C(F)(F)F)nc3CC[C@@H]12
15 | 100 | 100 | 18 | – | 0.023 | 8.3 | > 20 | 3.9 | 67 | 0.5 | 3.2 | > 20 | CC(C)(O)C(=O)N[C@@H]1CC[C@@]2(S(=O)(=O)c3ccc(F)cc3)c3ccc(C(F)(C(F)(F)F)C(F)(F)F)nc3CC[C@@H]12
16 | 97 | 86 | 15 | 0.002 | 0.006 | 12 | 11 | – | – | – | 12 | 7.7 | CC(C)(O)CC(=O)N[C@@H]1CC[C@@]2(S(=O)(=O)c3ccc(F)cc3)c3ccc(C(F)(C(F)(F)F)C(F)(F)F)cc3CC[C@@H]12

— ChEMBL document CHEMBL4706752 (ACS Med Chem Lett, 2021)
